Experimental data as given in patent US20120058133A1, “INHIBITION OF TRNA SYNTHETASES AND THERAPEUTIC APPLICATIONS THEREOF” (President and Fellows of Harvard College, priority 2009, published 2012).

Tested on: primary human memory T cells (CD4+ CD45RO+)
Assay: IL-17 and IFNγ expression by human memory T cells co-cultured with CD14+ monocytes
Assay type: cell-based
Conditions: 100 nM HF, 6 days
Method: FIG. 2F is a set of FACS analyses of purified primary human memory T cells (CD4^+ CD45RO^+) activated in co-culture with CD14^+ monocytes and treated with DMSO, 100 nM HF or 100 nM MAZ1310. T cells were expanded for 6 days and intracellular cytokine expression was determined following restimulation with PMA plus ionomycin.
Primary murine T and B cells were purified by cell sorting. CD4^+ CD25^− T cells were positively selected using CD4 dynabeads and detachabeads (Dynal—Oslo, Norway) per manufacturers instructions followed by nTreg depletion using a CD25 microbead kit (Miltenyi biotech—Auburn, Calif.). Naïve (CD4^+ CD62Lhi CD44lo Foxp3gfp- or CD4^+ CD62Lhi CD44lo CD25^−) T cells were purified from Foxp3gfp or Foxp3ko mice, respectively, by FACS sorting. CD8^+ T cells or B cells were isolated from CD4^− fractions using CD8 negative isolation kit (Dynal) or CD43 negative isolation kit (Miltenyi biotech), respectively. Resting human CD4^+ T cells were isolated from PBMC of healthy human donors using Dynal CD4 Positive Isolation Kit (Invitrogen—Carlsbad, Calif.) as previously described (Sundrud et al., Blood 106:3440, 2005). CD4^+ cells were further purified to obtain memory T cells by staining with PE-conjugated anti-human CD45RO-PE antibodies (BD Biosciences), and sorting on a FACSAria cytometer (BD Biosciences). Following purification, cells were greater than 99% CD4^+ CD45RO^+. […]

In the case of O=C(CC1NCCCC1O)Cn1cnc2cc(Br)c(Cl)cc2c1=O (racemic) [HF, halofuginone], the “IFNγ expression in human T cells” value is reported as “essentially unaffected” and the “percentage of human T cells expressing IL-17 and amount of IL-17 produced” value is reported as “greatly reduced”.
